This is an account of results in patent US20050112128A1, “Inhibition of protein kinase c-mu (PKD) as a treatment for cardiac hypertrophy and heart failure” (Myogen, Inc. and Board of Regents, The University of Texas …, priority 2003, published 2005).

Entries after “also recorded” stand apart in the source; their conditions may differ. Where no end group is shown, it is not given here.

Experiment [1] concerns nuclear export of HDAC5 in COS cells. The experiment can be described thus: GFP-HDAC5 nuclear export in transfected COS cells (fluorescence microscopy). The experiment is classed as cell-based. The following applies: COS cells transfected with GFP-HDAC5; 60 min after addition of compounds. As to the method: FIGS. 1A-D—PKC-dependent nuclear export of HDAC5. FIG. 1A. COS cells were cultured on 6-well dishes, transfected with a GFP-HDAC5 expression vector (1 μg) and stimulated with the indicated compounds, as described in Materials and Methods. Sixty minutes after addition of compounds, GFP-HDAC5 distribution was determined by fluorescence microscopy. […] FIG. 1B. COS cells were transfected with expression vectors encoding FLAG-tagged versions of either HDAC5 or an HDAC5 mutant harboring alanines in place of serines 259 and 498 (HDAC5 S259/498A) (1 μg each). Cells were stimulated with PMA for 60 min and HDAC5 distribution was determined by indirect immunofluorescence with anti-FLAG primary antibody and fluorecein-conjugated secondary antibody. HDAC5 259/498A is refractory to PMA stimulation. FIG. 1C. COS cells transfected with GFPHDAC5 encoding expression vector (1 μg) and stimulated with PMA for the indicated times. FIG. 1D. COS cells were transiently transfected with expression vectors encoding FLAG-tagged versions of HDAC5 or HDAC5 S259/498A (1 μg each). Cells were pretreated with the PKC inhibitor bisindolylmaleimide (Bis I; 10 μM) for 30 minutes and stimulated with PMA for 30 min, as indicated. Association of FLAG-HDAC5 with endogenous 14-3-3 was detected by sequential immunoprecipitation and immunoblotting.
Cell culture and transfection assays. COS cells were maintained in DMEM with FBS (10%), L-glutamine (2 mM), and penicillin-streptomycin. Transfection of COS cells was performed with Fugene 6 (Roche Molecular Biochemicals) according to manufacturer's instructions. For HDAC localization experiments, cells were treated 16-24 hours after transfection with PMA (100 nM), ionomycin […], 8-Br-cAMP (1 mM), pCPT-GMP (1 mM), or anisomycin (1 mM). Where noted, specific protein kinase inhibitors were added 30 min prior to the addition of any chemical stimulus. GFP-HDAC5 was visualized with standard fluorescent microscopic techniques. For indirect immunofluorescence of FLAG-HDAC5, COS cells were seeded on glass coverslips, transfected, and treated as above. After specific treatment, cells were fixed with buffered formalin (10%) and stained in PBS containing BSA (3%) and Nonidet P-40 (0.1%). Flag M2 antibody (Sigma) was used at a concentration of 1:200. Secondary fluoresceine-conjugated antibody (Vector Laboratories) was also used at a concentration of 1:200. Staining of cardiomyocytes for sarcomeres and atrial natriuretic factor (ANF) was performed by indirect immunofluorescence detection as above with antibodies directed against sarcomeric α-actinin (Sigma) and ANF (Peninsula Laboratories), respectively.

The test system of experiment [2] is nuclear export of GFP-HDAC5 in NRVMs. The experiment can be described thus: Quantitative HDAC5 nuclear export assay in NRVMs (Cellomics High Content Imaging System). The experiment is classed as cell-based, rat. The conditions noted are these: 2 hrs; for block of PE-induced nuclear export of HDAC5: PE 20 μM, KN93, wortmannin, staurosporine 1 mM, U1026, HA1077, Y-27632, DAG Kinase inhibitor II, SB216763, Bis I 10 mM, rapamycin 30 ng/ml, Gö6983 10 μM.

In a further experiment the test system is HDAC5-bound PKD. The class given is biochemical, rat. The following applies: NRVMs pre-treated 30 min with 10 μM inhibitor (pre-Bis I).
In another experiment the target is T1, PKD (Homo sapiens, UniProt Q15139).
T1 sequence (Q15139 1-912): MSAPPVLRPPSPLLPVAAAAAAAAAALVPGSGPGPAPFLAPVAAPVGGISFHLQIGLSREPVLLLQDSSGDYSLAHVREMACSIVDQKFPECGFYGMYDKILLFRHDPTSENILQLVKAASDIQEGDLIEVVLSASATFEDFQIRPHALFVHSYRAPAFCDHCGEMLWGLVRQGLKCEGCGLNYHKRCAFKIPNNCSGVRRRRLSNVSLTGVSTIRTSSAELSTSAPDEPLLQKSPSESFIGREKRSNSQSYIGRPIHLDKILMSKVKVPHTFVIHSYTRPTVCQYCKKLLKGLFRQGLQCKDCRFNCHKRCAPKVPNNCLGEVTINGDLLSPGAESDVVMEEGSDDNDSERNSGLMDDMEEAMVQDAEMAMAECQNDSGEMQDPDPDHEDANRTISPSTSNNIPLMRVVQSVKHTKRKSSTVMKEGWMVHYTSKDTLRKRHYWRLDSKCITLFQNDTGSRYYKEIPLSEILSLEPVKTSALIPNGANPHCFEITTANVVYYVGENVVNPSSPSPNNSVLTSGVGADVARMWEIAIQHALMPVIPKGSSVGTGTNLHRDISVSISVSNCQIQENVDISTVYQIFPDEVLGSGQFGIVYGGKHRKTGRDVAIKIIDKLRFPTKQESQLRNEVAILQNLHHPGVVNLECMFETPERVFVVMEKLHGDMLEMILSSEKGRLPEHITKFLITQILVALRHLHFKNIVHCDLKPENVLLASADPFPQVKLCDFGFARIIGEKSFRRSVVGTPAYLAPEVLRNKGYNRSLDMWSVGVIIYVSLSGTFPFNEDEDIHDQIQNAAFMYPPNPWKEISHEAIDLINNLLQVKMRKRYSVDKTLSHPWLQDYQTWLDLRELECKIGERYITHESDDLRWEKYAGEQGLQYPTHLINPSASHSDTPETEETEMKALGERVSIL
The following applies: literature (Van Lint 2002; Gschwendt 1996; Haworth); cited from earlier work.

Where [3] appears, read: NRVMs, inhibitor pre-treatment 30 min.

For the compound `Nc1ncnc2c1nc(Br)n2[C@@H]1O[C@@H]2COP(=O)(O)O[C@H]2[C@H]1O` [8-Br-cAMP], in experiment [1], the “stimulation of nuclear export of GFP-HDAC5” value (shortened to “stimulation”) is “only ionomycin and PMA stimulated nuclear export”.

As for `CN(C)CCCn1cc(C2=C(c3c[nH]c4ccccc34)C(=O)NC2=O)c2ccccc21` [Bis I, bisindolylmaleimide I], the “block of ET-1-induced nuclear export of HDAC5” value in experiment [2] (NRVMs, ET-1 50 nM, inhibitor pre-treatment 30 min) is recorded as “had no effect”. The “block of FBS-induced nuclear export of HDAC5” value in experiment [2] (NRVMs, FBS 10%, inhibitor pre-treatment 30 min) is “had no effect”. For the same compound, in experiment [2] (setting [3]), the “block of PE-induced nuclear export of HDAC5” value is recorded as “effective in blocking PE-dependent export of HDAC5; also recorded: inhibitory effect on PE-dependent HDAC5 nuclear export; also recorded: effective in blocking HDAC5 nuclear export”. For the same compound, in the experiment with HDAC5-bound PKD, the “block of HDAC5 phosphorylation, inhibitor given to cells before PMA” value is on record as “Phosphorylation of HDAC5 was blocked”. In addition, at PKD, the “sensitivity of PKD to the inhibitor” value is reported as “not to Bis I or Gö6983”.

Consider `O=c1c2ccccc2[nH]c(=S)n1CCN1CCC(=C(c2ccc(F)cc2)c2ccc(F)cc2)CC1` [DAGK inhibitor II], for which the “block of PE-induced nuclear export of HDAC5” value in experiment [2] (setting [3]) is reported as “did not significantly affect PE-induced nuclear export of HDAC5”.

As to `CN(C)CCCn1cc(C2=C(c3c[nH]c4ccccc34)C(=O)NC2=O)c2ccccc21` [GF I], at PKD, the “sensitivity of PKD to the inhibitor” value is reported as “insensitive”.

`COc1ccc2c(c1)c(C1=C(c3c[nH]c4ccccc34)C(=O)NC1=O)cn2CCCN(C)C` [Go6983]: the “block of PE-induced nuclear export of HDAC5” value in experiment [2] (setting [3]) is recorded as “inhibiting HDAC5 nuclear export in response to PE”. Also, the “sensitivity of PKD to the inhibitor” value at PKD is listed as “not to Bis I or Gö6983”.

`O=S(=O)(c1cccc2cnccc12)N1CCCNCC1` [HA1077]: the “block of PE-induced nuclear export of HDAC5” value in experiment [2] (setting [3]) was “did not significantly affect PE-induced nuclear export of HDAC5”.

Take `COc1ccc(S(=O)(=O)N(CCO)c2ccccc2CN(C)C/C=C/c2ccc(Cl)cc2)cc1` [KN93]: in experiment [2] (setting [3]), the “block of PE-induced nuclear export of HDAC5” value is reported as “did not significantly affect PE-induced nuclear export of HDAC5”.

Take `Cn1cc(C2=C(c3cn(CCCSC(=N)N)c4ccccc34)C(=O)NC2=O)c2ccccc21` [Ro 31-8220]: at PKD, the “sensitivity of PKD to the inhibitor” value is “insensitive”.

On to `Cn1cc(C2=C(c3ccc(Cl)cc3Cl)C(=O)NC2=O)c2ccccc21` [SB216763], for which, in experiment [2] (setting [3]), the “block of PE-induced nuclear export of HDAC5” value was “did not significantly affect PE-induced nuclear export of HDAC5”.

In the case of `N#CC(=C(/N)Sc1ccccc1N)/C(C#N)=C(/N)Sc1ccccc1N` [U1026], the “block of PE-induced nuclear export of HDAC5” value in experiment [2] (setting [3]) is “did not significantly affect PE-induced nuclear export of HDAC5”.

Turning to `C[C@@H](N)[C@H]1CC[C@H](C(=O)Nc2ccncc2)CC1` [Y-27632], the “block of PE-induced nuclear export of HDAC5” value in experiment [2] (setting [3]) is recorded as “did not significantly affect PE-induced nuclear export of HDAC5”.

For `COc1ccc(C[C@H]2NC[C@H](O)[C@H]2OC(C)=O)cc1` [anisomycin], in experiment [1], the “stimulation” value was “only ionomycin and PMA stimulated nuclear export”.

For the compound `C[C@H](CCC(=O)O)C[C@H](C)C[C@H](C)C(=O)/C=C(\O)[C@H](C)C[C@H](C)C/C=C/[C@@H](C)[C@@H](O)[C@@H](C)[C@@H](O)C[C@@H]1CC[C@@](C)([C@H]2CC[C@@](C)([C@@H](C)O)O2)O1` [ionomycin], the “stimulation” value in experiment [1] is “partial response; also recorded: stimulated nuclear export of GFP-HDAC5”.

With `Nc1nc2c(nc(Sc3ccc(Cl)cc3)n2[C@@H]2O[C@@H]3COP(=O)(O)O[C@H]3[C@H]2O)c(=O)[nH]1` [pCPT-GMP], the “stimulation” value in experiment [1] is “only ionomycin and PMA stimulated nuclear export”.

As for `CN[C@@H]1C[C@H]2O[C@@](C)([C@@H]1OC)n1c3ccccc3c3c4c(c5c6ccccc6n2c5c31)C(=O)NC4` [staurosporine], the “block of PE-induced nuclear export of HDAC5” value in experiment [2] (setting [3]) is “effective in blocking PE-dependent export of HDAC5; also recorded: effective in blocking HDAC5 nuclear export”.

Take “Endothelin-1 (CSCSSLMDKECVYFCHLDIIW; ends and bridges not checked; cysteine pairing not given here; UniProt P05305 53-73, looked up) [ET-1, hypertrophic agonist purchased from Sigma]”: in experiment [2] (NRVMs infected with Ad-GFP-HDAC5, PE 0.1 to 20 μM, ET-1 50 nM, FBS 10%), the “agonist-triggered nuclear export of HDAC5 in cardiomyocytes” value is recorded as “effectively promote nuclear export of HDAC5”.
